# According to US20160038468A1 (priority 2013, published 2016):
# Where two headings read alike, the source gives them in different places.
# Tests used:
# Type in all cases: cell-based
# [1] = test system: Gardnerella vaginalis; assay: Agar dilution MIC (CLSI), Gardnerella vaginalis vaginal isolates; settings: for Number of strains with indicated MIC: 100 samples
# [2] = test system: Atopobium vaginae; assay: Agar dilution MIC (CLSI), Atopobium vaginae vaginal isolates; settings: for Number of strains with indicated MIC: 62 samples
# [3] = test system: Prevotella timonensis; assay: Agar dilution MIC (CLSI), Prevotella timonensis vaginal isolates; settings: for MIC: read-out: Minimal Inhibitory Concentration (MIC)
# [4] = test system: Anaerococcus tetradius; assay: Agar dilution MIC (CLSI), Anaerococcus tetradius vaginal isolates; settings: for MIC: read-out: Minimal Inhibitory Concentration (MIC)
# [5] = test system: Peptoniphilus harei; assay: Agar dilution MIC (CLSI), Peptoniphilus harei vaginal isolates; settings: for MIC: read-out: Minimal Inhibitory Concentration (MIC)
# [6] = test system: Peptoniphilus lacrimalis; assay: Agar dilution MIC (CLSI), Peptoniphilus lacrimalis vaginal isolates; settings: for MIC: read-out: Minimal Inhibitory Concentration (MIC)
# [7] = test system: Megasphaera-like bacteria; assay: Agar dilution MIC (CLSI), Megasphaera-like bacteria vaginal isolates; settings: for MIC: read-out: Minimal Inhibitory Concentration (MIC)
# [8] = Gardnerella vaginalis, # tested 107
# [9] = Fannyhessea vaginae, # tested 62
# [10] = Hoylesella timonensis, # tested 33
# [11] = Anaerococcus tetradius, # tested 21
# [12] = Peptoniphilus harei, # tested 23
# [13] = Peptoniphilus lacrimalis, # tested 20
structure (smiles),measurement,setting,value
Cc1ncc([N+](=O)[O-])n1CCO [Metronidazole],activity against G vaginalis,[1],limited activity
same,MIC50,[1]; [8],64 µg/mL
same,MIC90,[1]; [8],> 128 µg/mL
same,Number of strains with indicated MIC,[1]; MIC 8 μg/ml,12
same,Number of strains with indicated MIC,[1]; MIC 16 μg/ml,16
same,Number of strains with indicated MIC,[1]; MIC 32 μg/ml,14
same,Number of strains with indicated MIC,[1]; MIC 64 μg/ml,15
same,Number of strains with indicated MIC,[1]; MIC >[…],34
same,Number of strains with indicated MIC,[1]; MIC […],6
same,activity against Atopobium vaginae,[2],limited activity
same,MIC50,[2]; [9],128 µg/mL
same,MIC90,[2]; [9],> 128 µg/mL
same,Number of strains with indicated MIC,[2]; MIC 8 μg/ml,2
same,Number of strains with indicated MIC,[2]; MIC 16 μg/ml,5
same,Number of strains with indicated MIC,[2]; MIC 32 μg/ml,10
same,Number of strains with indicated MIC,[2]; MIC 64 μg/ml,8
same,Number of strains with indicated MIC,[2]; MIC >[…],24
same,Number of strains with indicated MIC,[2]; MIC […] μg/ml,1
same,Number of strains with indicated MIC,[2]; MIC […],12
same,MIC,"[3]; Hoylesella timonensis, isolate 301212 10",2 µg/mL
same,MIC,"[3]; Hoylesella timonensis, isolate 601080 5",2 µg/mL
same,MIC,"[3]; Hoylesella timonensis, isolate 601088 15",2 µg/mL
same,MIC,"[3]; Hoylesella timonensis, isolate 601093 24",2 µg/mL
same,MIC,"[3]; Hoylesella timonensis, isolate 601097 S",2 µg/mL
same,MIC,"[3]; Hoylesella timonensis, isolate 601098 B",2 µg/mL
same,MIC,"[3]; Hoylesella timonensis, isolate 601157 19",2 µg/mL
same,MIC,"[3]; Hoylesella timonensis, isolate 601167 13",2 µg/mL
same,MIC,"[3]; Hoylesella timonensis, isolate 601170 13",2 µg/mL
same,MIC,"[3]; Hoylesella timonensis, isolate 601175 J",2 µg/mL
same,MIC,"[3]; Hoylesella timonensis, isolate 601178 19",2 µg/mL
same,MIC,"[3]; Hoylesella timonensis, isolate 601194 9B",2 µg/mL
same,MIC,"[3]; Hoylesella timonensis, isolate 601214 A",4 µg/mL
same,MIC,"[3]; Hoylesella timonensis, isolate 601226 C",2 µg/mL
same,MIC,"[3]; Hoylesella timonensis, isolate 601234 B",2 µg/mL
same,MIC,"[3]; Hoylesella timonensis, isolate 601252 B",4 µg/mL
same,MIC,"[3]; Hoylesella timonensis, isolate 601255 17",2 µg/mL
same,MIC,"[3]; Hoylesella timonensis, isolate 601266 18",2 µg/mL
same,MIC,"[3]; Hoylesella timonensis, isolate 601278 12",> 128 µg/mL
same,MIC,"[3]; Hoylesella timonensis, isolate 601281 22",2 µg/mL
same,MIC,"[3]; Hoylesella timonensis, isolate 601287 H",2 µg/mL
same,MIC,"[3]; Hoylesella timonensis, isolate 601293 13",4 µg/mL
same,MIC,"[3]; Hoylesella timonensis, isolate 601367 E",4 µg/mL
same,MIC,"[3]; Hoylesella timonensis, isolate 601370 13",4 µg/mL
same,MIC,"[3]; Hoylesella timonensis, isolate 601388 S",4 µg/mL
same,MIC,"[3]; Hoylesella timonensis, isolate 601401 J",2 µg/mL
same,MIC,"[3]; Hoylesella timonensis, isolate 601411 S",4 µg/mL
same,MIC,"[3]; Hoylesella timonensis, isolate 601414 O",4 µg/mL
same,MIC,"[3]; Hoylesella timonensis, isolate 601422 39",2 µg/mL
same,MIC,"[3]; Hoylesella timonensis, isolate 601429 11",2 µg/mL
same,MIC,"[3]; Hoylesella timonensis, isolate 601459 21",2 µg/mL
same,MIC50,[3]; [10],2 µg/mL
same,MIC90,[3]; [10],4 µg/mL
same,Number of strains with indicated MIC,"[3]; MIC >[…], 33 samples",1
same,Resistant,"[3]; number (%) of isolates, # tested 33, resistance: rifaximin >32, metronidazole >32, clindamycin >8 μg/ml",1 (3) μg/ml
same,MIC,"[4]; Anaerococcus tetradius, isolate 601103V 21",1 µg/mL
same,MIC,"[4]; Anaerococcus tetradius, isolate 601175V I",1 µg/mL
same,MIC,"[4]; Anaerococcus tetradius, isolate 601202V 11",1 µg/mL
same,MIC,"[4]; Anaerococcus tetradius, isolate 601212V 14",1 µg/mL
same,MIC,"[4]; Anaerococcus tetradius, isolate 601221V 12",128 µg/mL
same,MIC,"[4]; Anaerococcus tetradius, isolate 601242V 17",1 µg/mL
same,MIC,"[4]; Anaerococcus tetradius, isolate 601256V 9",1 µg/mL
same,MIC,"[4]; Anaerococcus tetradius, isolate 601287V V",1 µg/mL
same,MIC,"[4]; Anaerococcus tetradius, isolate 601305V J",1 µg/mL
same,MIC,"[4]; Anaerococcus tetradius, isolate 601326V H",1 µg/mL
same,MIC,"[4]; Anaerococcus tetradius, isolate 601340V 25",1 µg/mL
same,MIC,"[4]; Anaerococcus tetradius, isolate 601342V N",1 µg/mL
same,MIC,"[4]; Anaerococcus tetradius, isolate 601368V 42",1 µg/mL
same,MIC,"[4]; Anaerococcus tetradius, isolate 601369V 12",1 µg/mL
same,MIC,"[4]; Anaerococcus tetradius, isolate 601379V 25",1 µg/mL
same,MIC,"[4]; Anaerococcus tetradius, isolate 601401V T",1 µg/mL
same,MIC,"[4]; Anaerococcus tetradius, isolate 601429V 15",1 µg/mL
same,MIC,"[4]; Anaerococcus tetradius, isolate 601450V 22",1 µg/mL
same,MIC,"[4]; Anaerococcus tetradius, isolate 602375V 22",1 µg/mL
same,MIC50,[4]; [11],1 µg/mL
same,MIC90,[4]; [11],1 µg/mL
same,Number of strains with indicated MIC,"[4]; MIC […], 21 samples",1
same,MIC Range,[5]; # tested 23,1 to 4 µg/mL
same,MIC,"[5]; Peptoniphilus harei, isolate 426868V D",2 µg/mL
same,MIC,"[5]; Peptoniphilus harei, isolate 601098V Q",1 µg/mL
same,MIC,"[5]; Peptoniphilus harei, isolate 601203V 8",2 µg/mL
same,MIC,"[5]; Peptoniphilus harei, isolate 601212V 15",1 µg/mL
same,MIC,"[5]; Peptoniphilus harei, isolate 601233V R",4 µg/mL
same,MIC,"[5]; Peptoniphilus harei, isolate 601248V 23",1 µg/mL
same,MIC,"[5]; Peptoniphilus harei, isolate 601259V 11",2 µg/mL
same,MIC,"[5]; Peptoniphilus harei, isolate 601289V C",2 µg/mL
same,MIC,"[5]; Peptoniphilus harei, isolate 601293V 21",1 µg/mL
same,MIC,"[5]; Peptoniphilus harei, isolate 601302V F1",2 µg/mL
same,MIC,"[5]; Peptoniphilus harei, isolate 601311V R",1 µg/mL
same,MIC,"[5]; Peptoniphilus harei, isolate 601326V F",2 µg/mL
same,MIC,"[5]; Peptoniphilus harei, isolate 601342V F",1 µg/mL
same,MIC,"[5]; Peptoniphilus harei, isolate 601355V D",1 µg/mL
same,MIC,"[5]; Peptoniphilus harei, isolate 601365V 14",1 µg/mL
same,MIC,"[5]; Peptoniphilus harei, isolate 601374V F",2 µg/mL
same,MIC,"[5]; Peptoniphilus harei, isolate 601388V Q",1 µg/mL
same,MIC,"[5]; Peptoniphilus harei, isolate 601399V 16",1 µg/mL
same,MIC,"[5]; Peptoniphilus harei, isolate 601409V L",1 µg/mL
same,MIC,"[5]; Peptoniphilus harei, isolate 601413V 16",2 µg/mL
same,MIC,"[5]; Peptoniphilus harei, isolate 601426V D",1 µg/mL
same,MIC,"[5]; Peptoniphilus harei, isolate 601430V 22",1 µg/mL
same,MIC,"[5]; Peptoniphilus harei, isolate 601539V 25B",2 µg/mL
same,MIC50,[5]; [12],1 µg/mL
same,MIC90,[5]; [12],2 µg/mL
same,MIC Range,[6]; # tested 20,0.5 to 4 µg/mL
same,MIC,"[6]; Peptoniphilus lacrimalis, isolate 601028V 27A",2 µg/mL
same,MIC,"[6]; Peptoniphilus lacrimalis, isolate 601060V 32A",2 µg/mL
same,MIC,"[6]; Peptoniphilus lacrimalis, isolate 601078V O",1 µg/mL
same,MIC,"[6]; Peptoniphilus lacrimalis, isolate 601084V c",4 µg/mL
same,MIC,"[6]; Peptoniphilus lacrimalis, isolate 601105V 13",4 µg/mL
same,MIC,"[6]; Peptoniphilus lacrimalis, isolate 601139V 17",4 µg/mL
same,MIC,"[6]; Peptoniphilus lacrimalis, isolate 601213V 17",2 µg/mL
same,MIC,"[6]; Peptoniphilus lacrimalis, isolate 601255V 12",1 µg/mL
same,MIC,"[6]; Peptoniphilus lacrimalis, isolate 601261V O",1 µg/mL
same,MIC,"[6]; Peptoniphilus lacrimalis, isolate 601293V 15",1 µg/mL
same,MIC,"[6]; Peptoniphilus lacrimalis, isolate 601296V N",1 µg/mL
same,MIC,"[6]; Peptoniphilus lacrimalis, isolate 601305V K-1",1 µg/mL
same,MIC,"[6]; Peptoniphilus lacrimalis, isolate 601318V E",1 µg/mL
same,MIC,"[6]; Peptoniphilus lacrimalis, isolate 601330V H",1 µg/mL
same,MIC,"[6]; Peptoniphilus lacrimalis, isolate 601336V 47",1 µg/mL
same,MIC,"[6]; Peptoniphilus lacrimalis, isolate 601365V 13",2 µg/mL
same,MIC,"[6]; Peptoniphilus lacrimalis, isolate 601368V 39",0.5 µg/mL
same,MIC,"[6]; Peptoniphilus lacrimalis, isolate 601375V E",1 µg/mL
same,MIC,"[6]; Peptoniphilus lacrimalis, isolate 601388V B",1 µg/mL
same,MIC,"[6]; Peptoniphilus lacrimalis, isolate 601401V I",1 µg/mL
same,MIC50,[6]; [13],1 µg/mL
same,MIC90,[6]; [13],4 µg/mL
same,MIC,"[7]; 427510 h, isolate 427507 H",0.25 µg/mL
same,MIC50,[7]; # tested 25,0.25 µg/mL
same,MIC90,[7]; # tested 25,0.25 µg/mL
same,MIC,[7]; isolate 426749 T,0.25 µg/mL
same,MIC,[7]; isolate 426766 Q,0.25 µg/mL
same,MIC,[7]; isolate 426788 8a,0.25 µg/mL
same,MIC,[7]; isolate 426788 C,0.25 µg/mL
same,MIC,[7]; isolate 427522 8,0.25 µg/mL
same,MIC,[7]; isolate 600770 O,0.25 µg/mL
same,MIC,[7]; isolate 600790 N,0.25 µg/mL
same,MIC,[7]; isolate 600831 9,0.25 µg/mL
same,MIC,[7]; isolate 600837 18,0.25 µg/mL
same,MIC,[7]; isolate 600861 P,0.25 µg/mL
same,MIC,[7]; isolate 602236 E3,50.2 µg/mL
same,MIC,[7]; isolate 602241 D,0.25 µg/mL
same,MIC,[7]; isolate 602241 F,0.25 µg/mL
same,MIC,[7]; isolate 602270 A,0.25 µg/mL
same,MIC,[7]; isolate 602282 I,0.25 µg/mL
same,MIC,[7]; isolate 602302 22,0.25 µg/mL
same,MIC,[7]; isolate 602305 I,0.25 µg/mL
same,MIC,[7]; isolate 602324 8,0.25 µg/mL
same,MIC,[7]; isolate 602672 12A,0.25 µg/mL
